Measured values taken from US20070128217A1 (priority 2003, published 2007).

Columns and labels:
[1] = tested on: rabbit serum obtained by immunizing a rabbit with the SARS-CoV strain Frankfurt 1; format: binding; design: Binding of a rabbit serum to linear peptides / Binding of a rabbit serum to looped peptides / Rabbit serum linear peptides / Rabbit serum looped peptides / Binding of a rabbit serum to linear peptides of protein N of SARS-CoV Urbani (Rabbit serum linear peptides) / Binding of a rabbit serum to looped/cyclic peptides of protein N of SARS-CoV Urbani (Rabbit serum looped peptides): unit not given here
[2] = tested on: control sera (pooled serum of ten healthy LUMC hospital workers; commercial negative donor pooled serum from the Dutch bloodbank); format: binding, human
[3] = tested on: antibodies in sera from SARS patients (sera 1a, 1b, 2, 6, 37, 62, London, SARS-yellow, SARS-green); format: binding, human; design: Binding of serum 6 to linear peptides of protein X1 of SARS-CoV Urbani / Binding of serum 37 to linear peptides of protein X1 of SARS-CoV Urbani / Binding of serum 6 to looped/cyclic peptide (PEPSCAN-ELISA) / Binding of serum 37 to looped/cyclic peptide (PEPSCAN-ELISA) / Binding of serum 37 to looped/cyclic peptides of protein X1 of SARS-CoV Urbani / Binding of serum 6 to linear peptides of protein X2 / Binding of serum 37 to linear peptides of protein X2 / Binding of serum 37 to looped/cyclic peptides of protein X2 of SARS-CoV Urbani / Binding of serum 6 to linear peptides of protein M of SARS-CoV Urbani / Binding of serum 37 to linear peptides of protein M of SARS-CoV Urbani / Binding of serum 6 to looped/cyclic peptides of protein M of SARS-CoV Urbani / Binding of serum 37 to looped/cyclic peptides of protein M of SARS-CoV Urbani / Binding of serum 6 to linear peptides of protein X3 of SARS-CoV Urbani / Binding of serum 37 to linear peptides of protein X3 of SARS-CoV Urbani / Binding of serum 37 to looped/cyclic peptides of protein X3 of SARS-CoV Urbani / Binding of serum 6 to linear peptides of protein X4 of SARS-CoV Urbani / Binding of serum 37 to linear peptides of protein X4 of SARS-CoV Urbani / Binding of serum 37 to looped/cyclic peptides of protein X4 of SARS-CoV Urbani / Binding of serum 6 to linear peptides of protein X5 of SARS-CoV Urbani / Binding of serum 37 to linear peptides of protein X5 of SARS-CoV Urbani / Binding of serum 37 to looped/cyclic peptides of protein X5 of SARS-CoV Urbani / Binding of serum 6 to linear peptides of protein N of SARS-CoV Urbani / Binding of serum 37 to linear peptides of protein N of SARS-CoV Urbani / Binding of serum 6 to linear peptide (PEPSCAN-ELISA) / Binding of serum 1a to looped/cyclic peptides of protein N of SARS-CoV Urbani / Binding of serum 1b to looped/cyclic peptides of protein N of SARS-CoV Urbani / Binding of serum 2 to looped/cyclic peptides of protein N of SARS-CoV Urbani / Binding of serum 6 to looped/cyclic peptides of protein N of SARS-CoV Urbani / Binding of serum 37 to looped/cyclic peptides of protein N of SARS-CoV Urbani / Binding of serum 62 to looped/cyclic peptides of protein N of SARS-CoV Urbani / Binding of serum London to looped/cyclic peptides of protein N of SARS-CoV Urbani / Binding of serum SARS-green to looped/cyclic peptides of protein N of SARS-CoV Urbani: unit not given here

GTLIVNSVLLFLAFV
Binding of a rabbit serum to linear peptides [1]: 0.6
Binding of a rabbit serum to looped peptides [1]: 0.0
Binding of Control Serum Blood-Bank to Looped peptides [2]: 0.7
Binding of Control serum Blood-bank to linear peptides [2]: 0.7
Binding of Control serum LUMC to linear peptides [2]: 0.5
Binding of Control serum LUMC to looped peptides [2]: 0.3
Binding of serum 1a to linear peptides of protein E of SARS-CoV Urbani [3]: 0.8
Binding of serum 1a to looped/cyclic peptides of protein E of SARS-CoV Urbani [3]: 0.2
Binding of serum 1b to linear peptides of protein E of SARS-CoV Urbani [3]: 0.7
Binding of serum 1b to looped/cyclic peptides of protein E of SARS-CoV Urbani [3]: 0.0
Binding of serum 2 to linear peptides of protein E of SARS-CoV Urbani [3]: 0.4
Binding of serum 2 to looped/cyclic peptides of protein E of SARS-CoV Urbani [3]: 0.6
Binding of serum 6 to linear peptides of protein E of SARS-CoV Urbani [3]: 0.9
Binding of serum 6 to looped/cyclic peptides of protein E of SARS-CoV Urbani [3]: 0.3
Binding of serum 37 to linear peptides of protein E of SARS-CoV Urbani [3]: 0.8
Binding of serum 37 to looped/cyclic peptides of protein E of SARS-CoV Urbani [3]: 0.2
Binding of serum 62 to linear peptides of protein E of SARS-CoV Urbani [3]: 0.7
Binding of serum 62 to looped/cyclic peptides of protein E of SARS-CoV Urbani [3]: 0.4
Binding of serum London to linear peptides of protein E of SARS-CoV Urbani [3]: 0.5
Binding of serum London to looped/cyclic peptides of protein E of SARS-CoV Urbani [3]: 0.4
Binding of serum SARS-green to linear peptides of protein E of SARS-CoV Urbani [3]: 0.4
Binding of serum SARS-green to looped/cyclic peptides of protein E of SARS-CoV Urbani [3]: 0.4
Binding of serum SARS-yellow to linear peptides of protein E of SARS-CoV Urbani [3]: 0.2
Binding of serum SARS-yellow to looped/cyclic peptides of protein E of SARS-CoV Urbani [3]: 0.0

IAEILIIIMRTFRIA
Rabbit serum linear peptides [1]: 0.3
Rabbit serum looped peptides [1]: 0.2
Binding of Control Serum Blood-Bank to Looped peptides of the protein X3 of SARS-CoV Urbani [2]: 0.8
Binding of Control serum Blood-bank to linear peptides of the protein X3 of SARS-CoV Urbani [2]: 0.9
Binding of Control serum LUMC to linear peptides of the protein X3 of SARS-CoV Urbani [2]: 0.5
Binding of Control serum LUMC to looped peptides of the protein X3 of SARS-CoV Urbani [2]: 0.9
Binding of serum 1a to linear peptides of protein X3 of SARS-CoV Urbani [3]: 0.8
Binding of serum 1a to looped/cyclic peptides of protein X3 of SARS-CoV Urbani [3]: 0.7
Binding of serum 1b to linear peptides of protein X3 of SARS-CoV Urbani [3]: 0.5
Binding of serum 1b to looped/cyclic peptides of protein X3 of SARS-CoV Urbani [3]: 0.3
Binding of serum 2 to linear peptides of protein X3 of SARS-CoV Urbani [3]: 0.6
Binding of serum 2 to looped/cyclic peptides of protein X3 of SARS-CoV Urbani [3]: 0.5
Binding of serum 6 to linear peptides of protein X3 of SARS-CoV Urbani [3]: 0.0
Binding of serum 6 to looped/cyclic peptides of protein X3 of SARS-CoV Urbani [3]: 0.7
Binding of serum 37 to linear peptides of protein X3 of SARS-CoV Urbani [3]: 0.6
Binding of serum 37 to looped/cyclic peptides of protein X3 of SARS-CoV Urbani [3]: 0.4
Binding of serum 62 to linear peptides of protein X3 of SARS-CoV Urbani [3]: 0.7
Binding of serum 62 to looped/cyclic peptides of protein X3 of SARS-CoV Urbani [3]: 0.4
Binding of serum London to linear peptides of protein X3 of SARS-CoV Urbani [3]: 0.7
Binding of serum London to looped/cyclic peptides of protein X3 of SARS-CoV Urbani [3]: 0.8
Binding of serum SARS-green to linear peptides of protein X3 of SARS-CoV Urbani [3]: 0.3
Binding of serum SARS-green to looped/cyclic peptides of protein X3 of SARS-CoV Urbani [3]: 0.2
Binding of serum SARS-yellow to linear peptides of protein X3 of SARS-CoV Urbani [3]: 0.3
Binding of serum SARS-yellow to looped/cyclic peptides of protein X3 of SARS-CoV Urbani [3]: 0.6

LIVNSVLLFLAFVVF
Binding of a rabbit serum to linear peptides [1]: 0.5
Binding of a rabbit serum to looped peptides [1]: 0.3
Binding of Control Serum Blood-Bank to Looped peptides [2]: 0.8
Binding of Control serum Blood-bank to linear peptides [2]: 0.5
Binding of Control serum LUMC to linear peptides [2]: 0.3
Binding of Control serum LUMC to looped peptides [2]: 0.8
Binding of serum 1a to linear peptides of protein E of SARS-CoV Urbani [3]: 0.8
Binding of serum 1a to looped/cyclic peptides of protein E of SARS-CoV Urbani [3]: 0.5
Binding of serum 1b to linear peptides of protein E of SARS-CoV Urbani [3]: 0.6
Binding of serum 1b to looped/cyclic peptides of protein E of SARS-CoV Urbani [3]: 0.4
Binding of serum 2 to linear peptides of protein E of SARS-CoV Urbani [3]: 0.4
Binding of serum 2 to looped/cyclic peptides of protein E of SARS-CoV Urbani [3]: 0.5
Binding of serum 6 to linear peptides of protein E of SARS-CoV Urbani [3]: 0.7
Binding of serum 6 to looped/cyclic peptides of protein E of SARS-CoV Urbani [3]: 0.4
Binding of serum 37 to linear peptides of protein E of SARS-CoV Urbani [3]: 0.6
Binding of serum 37 to looped/cyclic peptides of protein E of SARS-CoV Urbani [3]: 0.5
Binding of serum 62 to linear peptides of protein E of SARS-CoV Urbani [3]: 0.6
Binding of serum 62 to looped/cyclic peptides of protein E of SARS-CoV Urbani [3]: 0.6
Binding of serum London to linear peptides of protein E of SARS-CoV Urbani [3]: 0.4
Binding of serum London to looped/cyclic peptides of protein E of SARS-CoV Urbani [3]: 0.3
Binding of serum SARS-green to linear peptides of protein E of SARS-CoV Urbani [3]: 0.4
Binding of serum SARS-green to looped/cyclic peptides of protein E of SARS-CoV Urbani [3]: 0.2
Binding of serum SARS-yellow to linear peptides of protein E of SARS-CoV Urbani [3]: 0.3
Binding of serum SARS-yellow to looped/cyclic peptides of protein E of SARS-CoV Urbani [3]: 0.5

LLFLAFVVFLLVTLA
Binding of a rabbit serum to linear peptides [1]: 0.6
Binding of a rabbit serum to looped peptides [1]: 0.4
Binding of Control Serum Blood-Bank to Looped peptides [2]: 0.5
Binding of Control serum Blood-bank to linear peptides [2]: 0.6
Binding of Control serum LUMC to linear peptides [2]: 0.4
Binding of Control serum LUMC to looped peptides [2]: 0.7
Binding of serum 1a to linear peptides of protein E of SARS-CoV Urbani [3]: 0.8
Binding of serum 1a to looped/cyclic peptides of protein E of SARS-CoV Urbani [3]: 0.7
Binding of serum 1b to linear peptides of protein E of SARS-CoV Urbani [3]: 0.6
Binding of serum 1b to looped/cyclic peptides of protein E of SARS-CoV Urbani [3]: 0.4
Binding of serum 2 to linear peptides of protein E of SARS-CoV Urbani [3]: 0.5
Binding of serum 2 to looped/cyclic peptides of protein E of SARS-CoV Urbani [3]: 0.6
Binding of serum 6 to linear peptides of protein E of SARS-CoV Urbani [3]: 0.7
Binding of serum 6 to looped/cyclic peptides of protein E of SARS-CoV Urbani [3]: 0.4
Binding of serum 37 to linear peptides of protein E of SARS-CoV Urbani [3]: 0.7
Binding of serum 37 to looped/cyclic peptides of protein E of SARS-CoV Urbani [3]: 0.7
Binding of serum 62 to linear peptides of protein E of SARS-CoV Urbani [3]: 0.7
Binding of serum 62 to looped/cyclic peptides of protein E of SARS-CoV Urbani [3]: 0.7
Binding of serum London to linear peptides of protein E of SARS-CoV Urbani [3]: 0.5
Binding of serum London to looped/cyclic peptides of protein E of SARS-CoV Urbani [3]: 0.4
Binding of serum SARS-green to linear peptides of protein E of SARS-CoV Urbani [3]: 0.4
Binding of serum SARS-green to looped/cyclic peptides of protein E of SARS-CoV Urbani [3]: 0.4
Binding of serum SARS-yellow to linear peptides of protein E of SARS-CoV Urbani [3]: 0.2
Binding of serum SARS-yellow to looped/cyclic peptides of protein E of SARS-CoV Urbani [3]: 0.7

MYSFVSEETGTLIVN
Binding of a rabbit serum to linear peptides [1]: 0.5
Binding of a rabbit serum to looped peptides [1]: 0.2
Binding of Control Serum Blood-Bank to Looped peptides [2]: 0.6
Binding of Control serum Blood-bank to linear peptides [2]: 0.8
Binding of Control serum LUMC to linear peptides [2]: 0.7
Binding of Control serum LUMC to looped peptides [2]: 0.8
Binding of serum 1a to linear peptides of protein E of SARS-CoV Urbani [3]: 0.8
Binding of serum 1a to looped/cyclic peptides of protein E of SARS-CoV Urbani [3]: 0.7
Binding of serum 1b to linear peptides of protein E of SARS-CoV Urbani [3]: 0.8
Binding of serum 1b to looped/cyclic peptides of protein E of SARS-CoV Urbani [3]: 0.5
Binding of serum 2 to linear peptides of protein E of SARS-CoV Urbani [3]: 0.6
Binding of serum 2 to looped/cyclic peptides of protein E of SARS-CoV Urbani [3]: 0.6
Binding of serum 6 to linear peptides of protein E of SARS-CoV Urbani [3]: 0.6
Binding of serum 6 to looped/cyclic peptides of protein E of SARS-CoV Urbani [3]: 0.5
Binding of serum 37 to linear peptides of protein E of SARS-CoV Urbani [3]: 0.8
Binding of serum 37 to looped/cyclic peptides of protein E of SARS-CoV Urbani [3]: 0.7
Binding of serum 62 to linear peptides of protein E of SARS-CoV Urbani [3]: 0.8
Binding of serum 62 to looped/cyclic peptides of protein E of SARS-CoV Urbani [3]: 0.8
Binding of serum London to linear peptides of protein E of SARS-CoV Urbani [3]: 0.6
Binding of serum London to looped/cyclic peptides of protein E of SARS-CoV Urbani [3]: 0.4
Binding of serum SARS-green to linear peptides of protein E of SARS-CoV Urbani [3]: 0.6
Binding of serum SARS-green to looped/cyclic peptides of protein E of SARS-CoV Urbani [3]: 0.4
Binding of serum SARS-yellow to linear peptides of protein E of SARS-CoV Urbani [3]: 0.1
Binding of serum SARS-yellow to looped/cyclic peptides of protein E of SARS-CoV Urbani [3]: 0.8
